# Results taken from patent publication US4914086A, “Method for treating African human and veterinary trypanosomiases” (priority 1987, dated 1990).
# Entries after “also recorded” stand apart in the source; their conditions may differ.
# Experiments:
# [1] = system: bloodstream trypomastigotes; details: in culture; cited from earlier work
# [2] = system: T. brucei subsp.; details: cited from earlier work
# [3] = system: T. b. brucei EATRO 110; assay: Delayed administration of 9-DINO on the EATRO 110 model (Table 2); format: in vivo, Trypanosoma brucei brucei (in Swiss-Webster mice); details: for # Cured/Total / % Cured: 3 days
# Excerpt: (§1) T. b. brucei EATRO 110 isolate was maintained as described (Bacchi, C. J., H. C. Nathan, S. H. Hutner, P. P. McCann and A. Sjoerdsma; Polyamine metabolism: a potential chemotherapeutic target in trypanosomes. Science 210: 332-334, 1980). It produces an acute, rapidly fatal parasitemia which is lethal to mice 3-5 days after inoculation. Two T. B. brucei strains, TREU 667 and LUMP 1001 developed by Jennings and coworkers (Jennings, F. W., D. D. Whitelaw and G. M. Urquhart; The relationship between duration of infection with Trypanosoma brucei in mice and the efficacy of chemotherapy. Parasitology 75: 143-153, 1977/Jennings, F. W. and G. D. Gray; Relapsed parasitemia following chemotherapy of chronic T. brucei infections in mice and its relation to cerebral trypanosomes; Contr. Microbiol. Immunol. 7 147-154, 1983) were used as CNS models. Both produce infections which are refractory to Berenil® (diminazene aceturate) and develop within 21 days after inoculation. They are not usually fatal until >40 days after inoculation. LUMP 1001 causes a more virulent CNS infection than TREU 667, and is regarded as more difficult to cure (Jennings, F. W. and G. D. Gray. Relapsed parasitemia following chemotherapy of chronic T. brucei infections in mice and its relation to cerebral trypanosomes. Contr. Microbiol. Immunol. 7 147-154, 1983).
# Swiss-Webster (25-30 g) mice were used throughout. […] Animals were divided into groups of 5 before treatment. Cured animals survived >30 days beyond deaths of controls. All compounds were administered by i.p. injection.
# [4] = system: T. B. gambiense; details: cited from earlier work
# [5] = in vivo
# Protocol: Swiss-Webster (25-30 g) mice were used throughout. In the EATRO 110 model, groups of 100 mice were infected (10^5 trypanosomes/mouse) and the infection was allowed to develop 24 hours before commencing therapy. Animals were divided into groups of 5 before treatment. Cured animals survived >30 days beyond deaths of controls. All compounds were administered by i.p. injection.
# [6] = system: mouse L cells; details: cited from earlier work
# [7] = system: Trypanosoma brucei gambiense; details: bone marrow tissue culture system; cited from earlier work
# [8] = system: mouse L cells; details: cited from earlier work; remark: listed apart in the source
# [9] = system: African trypanosomes; details: previous studies; cited from earlier work
# [10] = system: T. b. rhodesiense; details: cited from earlier work
# [11] = system: T. b. brucei LUMP 1001; assay: CNS model, T. b. brucei LUMP 1001 infection in mice (Table 5); format: in vivo, Trypanosoma brucei brucei (in Swiss-Webster mice); details: for efficacy in CNS model in words: LUMP 1001
# Excerpt: as §1
# The models for […] nervous system infections used TREU 667 and LUMP 1001 strains which were stored frozen and passaged once in rats before infection of mice. Maintenance and use of these screens were as described (Clarkson, A. B. Jr., C. J. Bacchi, G. H. Mellon, H. C. Nathan, P. P. McCann and A. Sjoerdsma. Efficacy of DFMO+blemoycin in a mouse model of central nervous system African trypanosomiasis. Proc. Natl. Acad. Sci. USA. 80: 5729-5733, 1983/Clarkson, A. B. Jr., E. J. Biene, C. J. Bacchi, P. P. McCann, S. H. Hutner and A. Sjoerdsma. New drug combination for experimental late stage African trypanosomiasis: DFMO with suramin. Am. J. Trop. Med. Hyg. 33: 1073-1077, 1984/Dube, D. K., G. Mpimbaza, A. C. Allison, E. Lederer and L. Rovis. Antitrypanosomal activity of sinefungin, Am. J. Trop. Med. Hyg. 32: 31-33, 1983/Fish, W. R., J. J. Marr, R. L. Berens, D. L. Looker, D. J. Nelson, S. LaFon and A. E. Balber. Inosine analogs as chemotherapeutic agents for African trypanosomes: metabolism in trypanosomes and efficacy in tissue culture. Anti-microb. Ag. Chemother. 27: 33-36, 1985/Clazer, R. I., and L. S. Lloyd. Effects of 8-azaadenosine and formycin on cell lethality and the synthesis and methylation of nucleic acids in human colon carcinoma cells in culture. Biochem. Pharmacol. 31: 3207-3214, 1982/Bacchi, C. J., H. C. Nathan, A. B. Clarkson, Jr., E. J. Bienen, A. J. Bitonti, P. P. McCann and A. Sjoerdsma. Activity of the ornithine decarboxylase inhibitors DL-α-difluoromethylornithine and monofluormethyldehydroornithine methylester alone and in combination with suramin against Trypanosoma brucei brucei central nervous system models, Am. J. Trop. Med. Hyg. (in press)). Briefly, groups of 100-120 mice were infected and the infections allowed to develop until day 21, when the animals were separated into groups of 10 and therapy commenced. Controls were treated with Berenil (40 mg/kg) on day 21. […] Parasitemia was followed by examining tail vein blood smears once weekly. Animals which had relapsed were removed from cages.
# [12] = system: VA-13 human cells; details: cited from earlier work
# [13] = system: Trypanosoma brucei rhodesiense; details: bone marrow tissue culture system; cited from earlier work
# [14] = system: T. congolense; details: cited from earlier work
# [15] = system: T. vivax; details: multiple daily doses; Dube et al.; cited from earlier work
# [16] = treatment begun 48 h post infection, 25 mg/kg i.p. daily
# [17] = treatment begun 48 h post infection, 50 mg/kg i.p. daily
# [18] = treatment begun 48 h post infection, 100 mg/kg i.p. daily
# [19] = treatment begun 72 h post infection, 25 mg/kg i.p. daily, only fully treated animals
# [20] = treatment begun 72 h post infection, 50 mg/kg i.p. daily, only fully treated animals
# [21] = treatment begun 72 h post infection, 100 mg/kg i.p. daily, only fully treated animals
smiles,measurement,setting,value
"O=c1[nH]cnc2c([C@@H]3O[C@H](CO)[C@@H](O)[C@H]3O)c[nH]c12 [9-DINO, 7-beta-D-ribofuranosyl-4-oxo-3H, 5H-pyrrolo (3,2-d) pyrimidine]",metabolism in words,[1],converted to toxic adenosine nucleotide analogues
same,metabolism in words,[2],can be aminated by T. brucei subsp. and converted to analogs of ATP
same,efficacy in words,"[3]; treatment at 48 h post infection, 25 to 100 mg/kg",completely effective
same,# Cured/Total,[3]; [16],5/5
same,% Cured,[3]; [16],100%
same,# Cured/Total,[3]; [17],5/5
same,% Cured,[3]; [17],100%
same,# Cured/Total,[3]; [18],5/5
same,% Cured,[3]; [18],100%
same,# Cured/Total,[3]; [19],6/10
same,% Cured,[3]; [19],60%
same,# Cured/Total,[3]; [20],6/10
same,% Cured,[3]; [20],60%
same,# Cured/Total,[3]; [21],6/9
same,% Cured,[3]; [21],67%
same,activity in words,[3]; treatment delayed 48 or 72 h post infection,active
same,metabolism in words,[4],metabolized to 9-deaza-ATP
same,dose at which toxicity appeared,"[5]; mouse, in vivo",400 mg/kg
same,toxicity in words,[5]; prolonged (i.e. 1 week) dose regimens,no evidence of toxicity
same,metabolism in words,[6],nor metabolized to adenosine nucleotide analogues by these cells; also recorded: not metabolized to adenine nucleotide analogs
same,activity in words,[7],active at very low concentrations
same,toxicity in words,[8],neither toxic for mouse L cells
same,activity in words,[9],"more active than allopurinol, thipurinol, and their respective nucleosides"
same,metabolism in words,[10],metabolized to 9-deaza-ATP
same,# Cured/Total,"[11]; 50 mg/kg i.p., 7 days",0/10
same,% Cured,"[11]; 50 mg/kg i.p., 7 days",0%
same,Avg. Day of Relapse (Range),"[11]; 50 mg/kg i.p., 7 days",36 (35-44) Day
same,# Cured/Total,"[11]; 100 mg/kg i.p., 7 days",0/9
same,% Cured,"[11]; 100 mg/kg i.p., 7 days",0%
same,Avg. Day of Relapse (Range),"[11]; 100 mg/kg i.p., 7 days",38 (35-44) Day
same,# Cured/Total,"[11]; 250 mg/kg i.p., 7 days",0/10
same,% Cured,"[11]; 250 mg/kg i.p., 7 days",0%
same,Avg. Day of Relapse (Range),"[11]; 250 mg/kg i.p., 7 days",49 (35-63) Day
same,efficacy in CNS model in words,[11],did not cure CNS infections
same,metabolism to adenine nucleotide analogs in words,[12],not metabolized to adenine nucleotide analogs
same,activity in words,[13],active at very low concentrations
"Nc1ncnc2c1ncn2[C@@H]1O[C@H](C[C@@H](N)CC[C@H](N)C(=O)O)[C@@H](O)[C@H]1O [Sinefungin, 6,9-Diamino-1-(6-amino-9H-purin-9-yl)-1,5,6,7,8,9-hexadeoxy-beta-D-ribo-decofuranuronic acid]",total dose to which infection responded,[14]; 9 injections 2 h apart,0.45 mg
same,cure in words,"[14]; multiple daily doses, Dube et al.",cured
same,cure in words,[15],cured
same,# Cured/Total,"[11]; 2.5 mg/kg i.p., 3 days",0/10
same,% Cured,"[11]; 2.5 mg/kg i.p., 3 days",0%
same,Avg. Day of Relapse (Range),"[11]; 2.5 mg/kg i.p., 3 days",35 days
same,# Cured/Total,"[11]; 5 mg/kg i.p., 3 days",0/10
same,% Cured,"[11]; 5 mg/kg i.p., 3 days",0%
same,Avg. Day of Relapse (Range),"[11]; 5 mg/kg i.p., 3 days",35 days
same,# Cured/Total,"[11]; 10 mg/kg i.p., 3 days",0/10
same,% Cured,"[11]; 10 mg/kg i.p., 3 days",0%
same,Avg. Day of Relapse (Range),"[11]; 10 mg/kg i.p., 3 days",39 (35-71) Day
same,efficacy in CNS model in words,[11],did not produce complete cures
